Experiments:
Type in all cases: in vivo
[1] = Paired comparison of sourness, model system comprising citric and lactic acid; details: 50 ppm in 5% sucrose / 0.07% citric acid / 0.09% lactic acid, pH 2.9 (±0.02), 95% confidence level
Protocol: A sucrose (5% by weight), citric acid (0.07% by weight), and lactic acid (0.09% by weight) solution was prepared and used for evaluating the sourness enhancement effect of a cyclohexanecarboxylic acid having the structure: The evaluation consisted of (i) a test solution of 50 ppm of the cyclohexanecarboxylic acid in the sucrose/citric-lactic acid solution; and (ii) a control solution comprising the sucrose/citric-lactic acid solution only. 41 subjects were asked to select out more sour sample in each pair. The pH of the samples was 2.9 (±0.02).

[2] = Sensory evaluation of sweet, sour and astringent intensities, model system comprising citric acid
Protocol: A sucrose (5% by weight), and citric acid (0.05% by weight) solution was prepared and used for evaluating the sourness enhancement effect of a cyclohexanecarboxylic acid having the structure: The evaluation consisted of (i) a test solution of 50 ppm of the cyclohexanecarboxylic acid in the sucrose/citric acid solution; and (ii) a control solution comprising the sucrose/citric acid solution only. 28 trained panelists were asked to evaluate the sweet, sour and astringent intensities for each sample on a linear scale from 0 to 10, where 0 correlated with “no taste” and 10 correlated with “too strong to taste”.

[3] = Sensory evaluation of sweet, sour and astringent intensities, model system comprising malic acid
Protocol: A sucrose (5% by weight) and malic acid (0.05% by weight) solution was prepared and used for evaluating the sourness enhancement effect of a cyclohexanecarboxylic acid having the structure: The evaluation consisted of (i) a test solution of 50 ppm of the cyclohexanecarboxylic acid in the sucrose/malic acid solution; and (ii) a control solution comprising the sucrose/malic acid solution only. 27 trained panelists were asked to evaluate the sweet, sour and astringent intensities for each sample on a linear scale from 0 to 10, where 0 corresponded to “no taste” and 10 corresponded to “too strong to taste”.

[4] = Paired comparison study (2-AFC) of sourness, model system comprising malic acid; details: 50 ppm in 5% sucrose / 0.05% malic acid, pH 3.1 (±0.02), 95% confidence level
Protocol: A sucrose (5% by weight) and malic acid (0.05% by weight) solution was prepared and used for evaluating the sourness enhancement effect of a cyclohexanecarboxylic acid having the structure: The evaluation consisted of (i) a test solution of 50 ppm of the cyclohexanecarboxylic acid in the sucrose/malic acid solution; and (ii) a control solution comprising the sucrose/malic acid solution only. In a repeat experiment using 41 trained subjects, 41 subjects were asked to select the more sour sample in each pair, in a paired comparison study (2-AFC). The pH of the samples was 3.1 (±0.02). 28 out of 41 subjects found the sample containing compound I at 50 ppm was more sour at a 95% confidence level.

[5] = Paired comparison of sourness, model system comprising tartaric acid; details: 50 ppm in 5% sucrose / 0.05% tartaric acid, pH 2.9 (±0.02), 95% confidence level
Protocol: A sucrose (5% by weight) and tartaric acid (0.05% by weight) solution was prepared and used for evaluating the sourness enhancement effect of a cyclohexanecarboxylic acid having the structure: The evaluation consisted of (i) a test solution of 50 ppm of the cyclohexanecarboxylic acid in the sucrose/tartaric acid solution; and (ii) a control solution comprising the sucrose/tartaric acid solution only. 41 subjects were asked to select out more sour sample in each pair. The pH of the samples was 2.9 (±0.02).

[6] = 50 ppm (by weight) in sucrose/citric acid solution, versus reference sample
[7] = 50 ppm (by weight) in sucrose/malic acid solution, versus reference sample

## O=C(/C=C/c1ccc(O)c(O)c1)O[C@@H]1C[C@](O)(C(=O)O)C[C@@H](O)[C@H]1O [compound I]
[1]
  subjects who found that adding the compound increased sourness: 29 out of 41 subjects
[2]; [6]
  change of astringency intensity: 28.0%
  decrease of sweetness intensity: 11.6%
[2]; 50 ppm in 5% sucrose / 0.05% citric acid, 28 trained panelists, scale 0 to 10, reference sample 2.5
  astringency intensity (tested sample): 3.2
[2]; 50 ppm in 5% sucrose / 0.05% citric acid, 28 trained panelists, scale 0 to 10, reference sample 4.3, 95% confidence level
  sweetness intensity (tested sample): 3.8
[2]; 50 ppm in 5% sucrose / 0.05% citric acid, pH value also unchanged
  sourness intensity, change versus reference sample: Without changing
[3]; [7]
  enhancement of astringency intensity: 24.0%
  enhancement of sourness intensity: 22.5%
[3]; 50 ppm in 5% sucrose / 0.05% malic acid, 27 trained panelists, linear scale 0 to 10, reference sample 4.0, 95% confidence level
  sourness intensity (tested sample): 4.9
[3]; 50 ppm in 5% sucrose / 0.05% malic acid, 27 trained panelists, scale 0 to 10, reference sample 2.5, 99% confidence level
  astringency intensity (tested sample): 3.1
[3]; 50 ppm in 5% sucrose / 0.05% malic acid, pH value also unchanged
  sweet intensity, change versus reference sample: Without changing
[4]
  subjects who found the sample containing the compound more sour: 28 out of 41 subjects
[5]
  subjects who found that adding the compound increased sourness: 28 out of 41 subjects
